We go through 13 compounds from patent publication US20100130737A1, “Regulating Agent of GPR34 Receptor Function” (TAKEDA PHARMACEUTICAL COMPANY LIMITED, priority 2005, published 2010).

SMILES strings stand for the structures.

One data set addresses human GPR34 (Homo sapiens, UniProt Q9UPC5). The data set can be described thus: Human GPR34 antagonist activity indicated by changes in intracellular calcium concentration (FLIPR). The data set is classed as cell-based. Also on record: expressed in transfected cells; host or cells: CHO cells (human GPR34CHO line) stably transfected with pCR3.1 human lung Gα16. To be noted: CHO cells expressing human GPR34/Gα16, against 2 μM lysoPS final concentration, Fluo-3AM. The protocol:
CHO cells expressing human GPR34/Gα were diluted to 3×10^4/100 μl in cell culture medium [nucleic acid-free Minimum Essential Alpha Medium (Invitrogen) containing 10% dialyzed fetal bovine serum (Invitrogen) 0.5 mg/ml Geneticin (Invitrogen), penicillin and streptomycin (Invitrogen)], dispensed 100 μl per well into a Black walled 96-well plate (Costar), and cultured overnight in a CO2 incubator. Changes in intracellular calcium concentration were measured with a FLIPR (Molecular Device) by the methods described below.
50 μg of Fluo-3AM (Dojindo) was dissolved in 21 μl of DMSO (Dojindo), an equal amount of 20% pluronic acid (Molecular Probes) was added and mixed, and this was added to 10.6 ml of assay buffer [prepared by adding 20 ml of 1 M HEPES (pH 7.4, Dojindo) to HBSS (Invitrogen), and then adding 10 ml of a solution obtained by dissolving 710 mg of Probenecid (Sigma) in 5 ml of 1 N NaOH and then adding and mixing 5 ml of the HBSS/HEPES solution)] with 105 μl of fetal bovine serum added thereto to prepare a fluorescent dye solution. The medium was removed from the cell plate, 100 μl per well of the fluorescent dye solution was immediately poured in, and the cells were cultured for 1 hour in a CO2 incubator to incorporate the fluorescent dye into the cells. After culture, the cells were washed with the aforementioned assay buffer. The compound was dissolved in DMSO (Wako Pure Chemical), diluted with DMSO as necessary, added to the aforementioned assay buffer to the target concentration and poured into the plate. To measure antagonist activity, 8 μM lysophosphatidyl serine (lysoPS, Alexis) solution (2 μM final concentration during reaction) was poured into the plate, which was set in the FLIPR. Following these preliminaries, the agonist effect was measured in the FLIPR by measuring changes in intracellular calcium concentration up to 180 seconds after addition of the sample, and after 200 seconds lysoPS was added and the antagonist effect was measured. In the case of the agonist effect, the EC50 value of the added compound was calculated from the dose reaction curve using changes in fluorescent strength from 0 to 180 seconds after the start of the reaction. In the case of the antagonist effect, the IC50 was calculated from the dose reaction curve using changes in maximum fluorescent strength after 200 to 380 seconds of reaction time. The data was analyzed using “GraphPad PRISM4”.
(In general: Calcium flux is commonly read through the fluorescence of an indicator in the cells.)

Chain of human GPR34 (Q9UPC5 whole entry): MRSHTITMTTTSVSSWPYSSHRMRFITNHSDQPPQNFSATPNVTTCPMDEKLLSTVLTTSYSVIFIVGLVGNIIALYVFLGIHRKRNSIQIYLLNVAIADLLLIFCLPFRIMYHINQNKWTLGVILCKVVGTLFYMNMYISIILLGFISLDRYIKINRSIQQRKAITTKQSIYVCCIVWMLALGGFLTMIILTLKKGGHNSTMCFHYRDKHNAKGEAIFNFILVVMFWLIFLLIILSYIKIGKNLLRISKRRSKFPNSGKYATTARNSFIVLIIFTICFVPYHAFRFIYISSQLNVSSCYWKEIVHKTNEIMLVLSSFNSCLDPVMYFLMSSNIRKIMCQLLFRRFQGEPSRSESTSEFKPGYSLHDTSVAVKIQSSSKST

Regarding `O=C(N[C@@H](Cc1ccc(OCc2ccccc2)cc1)C(=O)O)c1cc2ccc(-c3ccc(Cl)cc3)cc2s1` [Example C122, O-Benzyl-N-{[6-(4-chlorophenyl)-1-benzothiophene-2-yl]carbonyl}tyrosine], the melting point (commonly the temperature, or range, at which the solid turns liquid) lay in the range of 237 to 239 °C. In addition, the IC50 (in general, the concentration at which inhibition is half-maximal) on human GPR34 was at most 1 µM.
Consider `O=C(N[C@@H](Cc1ccc(OCc2ccccc2)cc1)C(=O)O)c1cc2cc(-c3ccc(Cl)cc3)ccc2s1` [Example C123, O-Benzyl-N-{[5-(4-chlorophenyl)-1-benzothiophene-2-yl]carbonyl}tyrosine], for which the melting point is 206 to 207 °C. In addition, the IC50 at human GPR34 was at most 1 µM.
For `O=C(N[C@@H](Cc1ccc(OCc2ccccc2)cc1)C(=O)O)c1cc2cc(C#Cc3ccccc3)ccc2s1` [Example C139, O-Benzyl-N-{[5-(phenylethynyl)-1-benzothiophene-2-yl]carbonyl}tyrosine], in that order: 198 to 199 °C and at most 1 µM.
The compound `Cc1c(C(=O)N[C@@H](Cc2ccc(OCc3ccccc3)cc2)C(=O)O)oc2ccc(-c3ccc(Cl)cc3)cc12` [Example C142, O-Benzyl-N-{[5-(4-chlorophenyl)-3-methyl1-benzofuran-2-yl]carbonyl}tyrosine] gave a melting point of 209 to 210 °C. Besides, the 50% inhibitory concentration (IC50) at human GPR34 is at most 1 µM.
Turning to `O=C(N[C@@H](Cc1ccc(OCc2ccccc2)cc1)C(=O)O)c1cc2ccc(-c3ccc(Cl)cc3)cc2o1` [Example C143, O-Benzyl-N-{[6-(4-chlorophenyl)-1-benzofuran-2-yl]carbonyl}tyrosine], the melting point is 170 to 171 °C. The IC50 at human GPR34 was at most 1 µM.
In the same order, the values of `O=C(N[C@@H](Cc1ccc(OCc2ccccc2)cc1)C(=O)O)c1nc2ccc(/C=C/c3ccccc3)cc2[nH]1` [Example C144, O-Benzyl-N-({6-[(E)-2-phenylethenyl]-1H-benzimidazol-2-yl)carbonyl)tyrosine] are 247 °C (dec.) and at most 1 µM.
As for `O=C(N[C@@H](Cc1ccc(OCc2ccccc2)cc1)C(=O)O)C1=Cc2ccc(-c3ccc(Cl)cc3)cc2SC1` [Example C145, O-Benzyl-N-{[7-(4-chlorophenyl)-2H-thiochromene-3-yl]carbonyl}tyrosine], the melting point lay within 225 to 227 °C. Further, the IC50 at human GPR34 was at most 1 µM.
Regarding `O=C(N[C@@H](Cc1ccc(OCc2ccccc2)cc1)C(=O)O)c1cc2cc(-c3ccc(Cl)cc3)ccc2[nH]c1=O` [Example C146, O-Benzyl-N-{[6-(4-chlorophenyl)-2-oxo-1,2-dihydroquinolin-3-yl]carbonyl}tyrosine], the melting point was in the range of 298 to 299 °C. At human GPR34, the half-inhibitory concentration (IC50) is at most 1 µM.
As for `Nc1c(C(=O)N[C@@H](Cc2ccc(OCc3ccccc3)cc2)C(=O)O)oc2cc(-c3ccc(Cl)cc3)ccc12` [Example C147, N-{[3-Amino-6-(4-chlorophenyl)-1-benzofuran-2-yl]carbonyl}-O-benzyltyrosine], the melting point is 250 °C (dec.). Besides, on human GPR34, the IC50 is at most 1 µM.
Take `Cc1cccc(COc2ccc(C[C@H](NC(=O)c3cn4ccc(-c5ccc(Cl)cc5)cc4n3)C(=O)O)cc2)c1` [Example E60, N-{[7-(4-Chlorophenyl)imidazo[1,2-a]pyridin-2-yl]carbonyl}-O-(3-methylbenzyl)tyrosine]: the melting point lay within 245 to 246 °C.
Still for that read-out and setting: the result for `COc1cccc(COc2ccc(C[C@H](NC(=O)c3cn4ccc(-c5ccc(Cl)cc5)cc4n3)C(=O)O)cc2)c1` [Example E61, N-{[7-(4-Chlorophenyl)imidazo[1,2-a]pyridin-2-yl]carbonyl)-O-(3-methoxybenzyl)tyrosine] reads 239 to 240 °C; that for `O=C(NC(Cc1ccc(OCc2ccc(F)cc2)cc1)C(=O)O)c1cn2ccc(C#Cc3ccccc3)cc2n1` (stereo not shown) [Example E62], 243 °C (dec.); that for `O=C(N[C@@H](Cc1ccc(OCc2ccc(C(F)(F)F)cc2)cc1)C(=O)O)c1cn2ccc(-c3ccc(Cl)cc3)cc2n1` [Example E66, N-{[7-(4-Chlorophenyl)imidazo[1,2-a]pyridin-2-yl]carbonyl}-O-[4-(trifluoromethyl)benzyl]tyrosine], 263 °C.
